In ChEMBL document CHEMBL5150076, “Discovery of Novel Orally Bioavailable Triazoles with Potent and Broad-Spectrum Antifungal Activity In Vitro and In Vivo” (J Med Chem, 2022) one finds hemolysis and viability data, which are given here for 1 compound.

The nature of data set [1]: Induction of hemolysis in rabbit RBC at 16 ug/ml incubated for 1 hr. It is filed as toxicity, cell-based, Oryctolagus cuniculus, Erythrocyte. The conditions noted are these: red blood cells, at 16 µg/mL, read-out: Activity.
The nature of data set [2]: Cytotoxicity against HUVEC assessed as cell viability at 64 ug/ml incubated for 24 hrs by CCK-8 assay. It is filed as toxicity, cell-based. The conditions noted are these: human, HUVEC cells, at 64 µg/mL, read-out: Activity. On the technique in general: Formazan colour is commonly taken as a measure of viable cells.
A short description of data set [3]: in vitro. The conditions noted are these: human, Caco-2 cells; at 64 µg/mL.
Data set [4] can be described thus: Induction of hemolysis in rabbit RBC at 64 ug/ml incubated for 1 hr. It is filed as toxicity, cell-based, Oryctolagus cuniculus, Erythrocyte. To be noted: red blood cells, at 64 µg/mL, read-out: Activity.
Data set [5] can be described thus: Induction of hemolysis in rabbit RBC at 32 ug/ml incubated for 1 hr. To be noted: red blood cells, at 32 µg/mL, read-out: Activity. It is filed as toxicity, cell-based, Oryctolagus cuniculus, Erythrocyte.

As for `C[C@@H]1[C@H](O)[C@@H](C)/C=C/C=C/C=C/C=C/C=C/C=C/C=C/[C@H](O[C@@H]2O[C@H](C)[C@@H](O)[C@H](N)[C@@H]2O)C[C@@H]2O[C@](O)(C[C@@H](O)C[C@@H](O)[C@H](O)CC[C@@H](O)C[C@@H](O)CC(=O)O[C@H]1C)C[C@H](O)[C@H]2C(=O)O` [AMPHOTERICIN B], in data set [1], the hemolysis at 1 h, 16 ug/ml was determined as 24.7%. In addition, the results for the viability at 24 h, 64 ug/ml in data set [2] and in data set [3] were 78.2% and 63.3%, respectively. Further, the hemolysis at 1 h, 64 ug/ml in data set [4] came out at 102%. In addition, the hemolysis at 1 h, 32 ug/ml in data set [5] is 65.2%.
